Experimental data as given in patent US11993640B2, “Treating inflammatory lung disease” (United States Government as represented by the Department …, priority 2019, dated 2024).
Non-standard residues stand in square brackets, D forms with d. Residues, ends and D or L forms follow the SMILES beside them. *: point of attachment. Phenylacetyl(2,3,4,5,6-F5) = O=C(Cc1c(F)c(F)c(F)c(F)c1F)*; Phe(F5) = N[C@@H](Cc1c(F)c(F)c(F)c(F)c1F)C(=O)O; Phe(4-Cl) = N[C@@H](Cc1ccc(Cl)cc1)C(=O)O; hArg = N=C(N)NCCCC[C@H](N)C(=O)O; 12Ado = NCCCCCCCCCCCC(=O)O; Nle = CCCC[C@H](N)C(=O)O; Orn = NCCC[C@H](N)C(=O)O; Abu = CC[C@H](N)C(=O)O; PhAc = O=C(Cc1ccccc1)*

How the values were obtained:
[1] = system: KATOIII cells; assay: In vitro cell viability, stomach cancer KATOIII; format: cell-based, human; details: 5 μM, 72 h; relative to MIA602 = 1; Table 3A
Description: (§1) The inhibitory effects of the various synthesized GHRH antagonists were tested in cell proliferation assays in various human cancer cell lines including stomach cancer (KATOIII, N87), colon cancer (HT-29), urothelial cancer (J82, RT4), pancreatic cancer (PANC-1, CFPAC-1), prostatic cancer (PC3), breast cancer (MX-1, HCC1806), ovarian cancer (SK-OV-3, OVCAR-3) and lung cancer (HCC827, H460).
(§2) Cell culture. Human cancer cell lines including pancreatic (PANC-1 and CFPAC-1), lung (HCC827 and H460), stomach (NCI-N87 and KATOIII), urothelial (J82, RT4), prostatic (PC3), breast (MX-1 and HCC 1806), colorectal (HT-29), and ovarian (SK-OV-3 and OVCAR-3) were obtained from the American Type Culture Collection (ATCC) and cultured at 37° C. in a humidified 95% air/5% CO2 atmosphere in the medium recommended by ATCC.
(§3) In vitro cell viability. Cell viability was analyzed as follows: cancer cells including pancreatic (PANC-1 and CFPAC-1), lung (HCC827 and H460), stomach (NCI-N87 and KATOIII), urothelial (J82, RT4), prostatic (PC3) and breast (MX-1 and HCC 1806), colorectal (HT-29) and ovarian (SK-OV-3 and OVCAR-3) were grown on 96 well plates to ˜60% confluence, the cells were starved for 24 h in culture medium containing 0.5% FBS. Cells were then treated with GHRH antagonists MIA602 AVR compounds at concentrations of 1, 2.5 or 5 μM, or vehicle (0.1% DMSO) in quintuplicates for 72 hours. The medium was replaced every 48 hours. Cell viability was measured using CellTiter 96 aqueous one solution kit (Promega). Inhibitory effects of tested AVR compounds in comparison to that of MIA602 are presented as inhibitory potency.
(§4) Inhibitory effects of selected AVR compounds in comparison to that of MIA602 are presented as inhibitory potency (e.g., percentage of inhibition). […] The cell lines tested including lung cancer HCC827 (FIG. 2A), pancreatic cancer CFPAC-1 (FIG. 2B), stomach cancer N87 (FIG. 2C), colon cancer HT-29 (FIG. 2D), breast cancers MX-1 and HCC1806 (FIGS. 2E, F). Based on the results of cell proliferation assay after cancer cells were treated with antagonist at concentration of 5 μM for 72H, the relative inhibitory potency of AVR antagonists in comparison to MIA-602 is summarized in Table 3 A and B. Over 60 AVR compounds were tested in 12 cancer cell lines.

[2] = system: CFPAC-1 cells; assay: In vitro cell viability, pancreatic cancer CFPAC-1; format: cell-based, human; details: 5 μM, 72 h; relative to MIA602 = 1; Table 3A
Description: as §1, §2, §3, §4
(§5) Based on the results of cell proliferation assay after cancer cells were treated with antagonist at concentration of 5 µM for 72H, * at concentration of 2 µM for 72 H.

[3] = system: PANC-1 cells; assay: In vitro cell viability, pancreatic cancer PANC-1; format: cell-based, human; details: 5 μM, 72 h; relative to MIA602 = 1; Table 3A
Description: as §1, §2, §3, §4

[4] = system: PC3 cells; assay: In vitro cell viability, prostatic cancer PC3; format: cell-based, human; details: 5 μM, 72 h; relative to MIA602 = 1; Table 3A
Description: as §1, §2, §3
Inhibitory effects of selected AVR compounds in comparison to that of MIA602 are presented as inhibitory potency (e.g., percentage of inhibition). […] The cell lines tested including lung cancer HCC827 (FIG. 2A), pancreatic cancer CFPAC-1 (FIG. 2B), stomach cancer N87 (FIG. 2C), colon cancer HT-29 (FIG. 2D), breast cancers MX-1 and HCC1806 (FIGS. 2E, F). […]

[5] = system: HCC1806 cells; assay: In vitro cell viability, breast cancer HCC1806; format: cell-based, human; details: 5 μM, 72 h; relative to MIA602 = 1; Table 3A
Description: as §1, §2, §3, §4, §5

[6] = system: MX-1 cells; assay: In vitro cell viability, breast cancer MX-1; format: cell-based, human; details: 5 μM, 72 h; relative to MIA602 = 1; Table 3A
Description: as §1, §2, §3, §4, §5

[7] = system: NCI-N87 cells; assay: In vitro cell viability (CellTiter 96), stomach cancer N87; format: cell-based, human; details: 5 μM, 72 h
Description: as §1, §2, §3, §4, §5

[8] = system: HCC827 cells; assay: In vitro cell viability, lung cancer HCC827; format: cell-based, human; details: 5 μM, 72 h; relative to MIA602 = 1; Table 3A
Description: as §1, §2, §3, §4, §5

[9] = system: J82 cells; assay: In vitro cell viability, urothelial cancer J82; format: cell-based, human; details: 5 μM, 72 h; relative to MIA602 = 1; Table 3A
Description: as §1, §2, §3, §4

[10] = system: NCI-N87 xenograft; assay: Xenograft tumor growth in nude mice, stomach cancer N87; format: in vivo; details: Panel D, 10 weeks, 2 μg/day s.c.
Description: The peptides' activity was compared with GHRH antagonist MIA-602. All statistical analyzses were performed from comparing GHRA antagonists to non-treated tumor (control).
Peptides and chemicals. GHRH antagonists MIA-602 and AVR-GHRH antagonists (see Table 2 above) were synthesized by solid phase methods and purified by HPLC. The peptides were dissolved in DMSO and further diluted in 10% 1, 2-propanediol. The final concentration of peptides was 50 µg/ml in 10% 1, 2-propanediol containing 0.1% of DMSO.
Cell culture. Human cancer cell lines including pancreatic (PANC-1 and CFPAC-1), lung (HCC827 and H460), stomach (NCI-N87), prostate (PC3), brest (MX-1 and HCC-1806), colorectal (HT-29), and ovarian (SK-OV-3 and OVCAR-3) were obtained from the American Type Culture Collection (ATCC) and cultured at 37° C. in a humidified 95% air/5% CO2 atmosphere in the medium recommended by ATCC.
Xenograft models of human cancers in nude mice. Female athymic (NCr nu/nu) nude mice, 5-to 6-weeks-old, obtained from the Envigo labs (Tampa, FL), were housed in laminar airflow cabinets under pathogen-free conditions with a 12-h light/12-h dark schedule, and were fed autoclaved standard chow and water. To generate mice with xenografted tumors, tumor xenografts were initiated by subcutaneous (s.c.) injection of […] human cancer cells into female nude mice. After about 4 weeks the resulting tumors were dissected and collected after removing necrosis tissues. The tumors were then cut into particles with size of ˜3 mm3 and transplanted s.c. by trocar needle into experimental animals. When tumors grew to the size of 50-60 mm3 (by volume), […] of 5 μg of GHRH antagonists MIA-602 or AVR-compounds (2-10 μg as indicated), or vehicle solutions (0.1% DMSO in 10% 1, 2-propanediol) respectively. Tumor sizes were measured weekly.
Statistical analysis. One-way ANOVA followed by Bonferroni comparison were performed. Data are expressed as Mean±SEM. To determine statistical significance between animal groups, two-tailed Student's t-test was conducted. Differences were considered significant when p<0.05.
Results. […] FIG. 1A-N represents in vivo inhibition of tumor growth during the treatment with GHRH antagonist MIA-602 and selected AVR antagonists in nude mice xenografted with various human tumors including pancreatic cancer PANC-1 (FIG. 1A) and CFPAC-1 (FIG. 1I); lung cancer HCC827 (FIGS. 1B, C) and H460 (FIG. 1H); stomach cancer N87 (FIGS. 1D-F); colon cancer HT-29 (FIG. 1G); breast cancer MX-1 and HCC-1806 (FIGS. 1J, K); ovarian cancer SK-OV-3 and OVACAR-3 (FIGS. 1L, M) and prostate cancer PC3 (FIG. 1N). See also Table 5.

Row | SMILES | Relative inhibitory potency, Stomach KATOIII [1] | Relative inhibitory potency, Pancreatic CFPAC-1 [2] | Relative inhibitory potency, Pancreatic Panc-1 [3] | Relative inhibitory potency, Prostatic PC3 [4] | Relative inhibitory potency, Breast HCC1806 [5] | Relative inhibitory potency, Breast MX-1 [6] | Relative inhibitory potency, Stomach N87 ([7]; relative to MIA602 = 1, Table 3A) | Relative inhibitory potency, Lung HCC827 [8] | Relative inhibitory potency, Urothelial J82 [9] | In vitro relative inhibitory potency in comparison to MIA-602, NCI-N87 ([7]; Table 3B) | Tumor Growth % [10] [%]
1 | CCCC[C@H](NC(=O)[C@@H](NC(=O)[C@H](CC(=O)O)NC(=O)[C@H](CCC(N)=O)NC(=O)[C@H](CC(C)C)NC(=O)[C@H](CC(C)C)NC(=O)[C@H](CCCCN)NC(=O)[C@H](CCCNC(=N)N)NC(=O)[C@H](C)NC(=O)[C@H](CO)NC(=O)[C@H](CC(C)C)NC(=O)[C@H](CCC(N)=O)NC(=O)[C@H](CC)NC(=O)[C@H](CC(C)C)NC(=O)[C@@H](NC(=O)[C@H](CCCCN)NC(=O)[C@H](CCCNC(=N)N)NC(=O)[C@H](Cc1ccc(O)cc1)NC(=O)[C@H](CCCNC(=N)N)NC(=O)[C@H](C)NC(=O)[C@@H](NC(=O)[C@H](Cc1ccc(Cl)cc1)NC(=O)[C@@H](NC(=O)[C@H](C)NC(=O)[C@H](CC(=O)O)NC(=O)[C@@H](CCCNC(=N)N)NC(=O)[C@H](Cc1ccc(O)cc1)NC(=O)CCCCCCCCCCCNC(=O)Cc1ccccc1)[C@@H](C)CC)[C@@H](C)O)C(C)C)[C@@H](C)CC)C(=O)N[C@H](CCCNC(=N)N)C(=O)N[C@@H](CCCCNC(=N)N)C(N)=O [AVR-107, PhAC-Ada-Tyr-DArg-Asp-Ala-Ile-Cpa-Thr-Ala-Arg-Tyr-Arg-Lys-Val-Leu-Abu-Gln-Leu-Ser-Ala-Arg-Lys-Leu-Leu-Gln-Asp-Ile-Nle-DArg-Har-NH2] ({PhAc-12Ado}-Y[dR]DAI[Phe(4-Cl)]TARYRKVL[Abu]QLSARKLLQDI[Nle][dR][hArg]-NH2) | 1.295 | 1.080 | 1.160 | 0.800 | 0.950 | 1.010 | – | – | – | – | –
2 | CCCC[C@H](NC(=O)[C@@H](NC(=O)[C@H](CC(=O)O)NC(=O)[C@H](CCC(N)=O)NC(=O)[C@H](CC(C)C)NC(=O)[C@H](CC(C)C)NC(=O)[C@H](CCCN)NC(=O)[C@H](Cc1c[nH]cn1)NC(=O)[C@H](C)NC(=O)[C@H](CO)NC(=O)[C@H](CC(C)C)NC(=O)[C@H](CCC(N)=O)NC(=O)[C@H](CC)NC(=O)[C@H](CC(C)C)NC(=O)[C@@H](NC(=O)[C@H](CCCCN)NC(=O)[C@H](CCCNC(=N)N)NC(=O)[C@H](Cc1c(F)c(F)c(F)c(F)c1F)NC(=O)[C@H](CCCNC(=N)N)NC(=O)[C@H](C)NC(=O)[C@@H](NC(=O)[C@H](Cc1ccc(Cl)cc1)NC(=O)[C@@H](NC(=O)[C@H](C)NC(=O)[C@H](CC(=O)O)NC(=O)[C@@H](CCCNC(=N)N)NC(=O)[C@H](Cc1ccc(O)cc1)NC(=O)CCCCCCCCCCCNC(=O)Cc1ccccc1)[C@@H](C)CC)[C@@H](C)O)C(C)C)[C@@H](C)CC)C(=O)N[C@H](CCCNC(=N)N)C(=O)N[C@@H](CCCCNC(=N)N)C(N)=O [AVR-116, PhAC-Ada-Tyr-DArg-Asp-Ala-Ile-Cpa-Thr-Ala-Arg-5FPhe-Arg-Lys-Val-Leu-Abu-Gln-Leu-Ser-Ala-His-Orn-Leu-Leu-Gln-Asp-Ile-Nle-DArg-Har-NH2] ({PhAc-12Ado}-Y[dR]DAI[Phe(4-Cl)]TAR[Phe(F5)]RKVL[Abu]QLSAH[Orn]LLQDI[Nle][dR][hArg]-NH2) | 1.202 | 1.445 | 1.208 | – | – | – | 2.484 | 2.470 | 3.034 | – | –
3 | CCCC[C@H](NC(=O)[C@@H](NC(=O)[C@H](CC(=O)O)NC(=O)[C@H](CCC(N)=O)NC(=O)[C@H](CC(C)C)NC(=O)[C@H](CC(C)C)NC(=O)[C@H](CCCCN)NC(=O)[C@H](CCCNC(=N)N)NC(=O)[C@H](C)NC(=O)[C@H](CO)NC(=O)[C@H](CC(C)C)NC(=O)[C@H](CCC(N)=O)NC(=O)[C@H](CC)NC(=O)[C@H](CC(C)C)NC(=O)[C@@H](NC(=O)[C@H](CCCCN)NC(=O)[C@H](CCCNC(=N)N)NC(=O)[C@H](Cc1ccc(OC)cc1)NC(=O)[C@H](CCCCNC(=N)N)NC(=O)[C@H](CC(N)=O)NC(=O)[C@@H](NC(=O)[C@H](Cc1ccc(Cl)cc1)NC(=O)[C@@H](NC(=O)[C@H](C)NC(=O)[C@H](CC(=O)O)NC(=O)[C@@H](CCCNC(=N)N)NC(=O)[C@H](Cc1ccc(O)cc1)NC(=O)CCCCCCCCCCCNC(=O)Cc1c(F)c(F)c(F)c(F)c1F)[C@@H](C)CC)[C@@H](C)O)C(C)C)[C@@H](C)CC)C(=O)N[C@H](CCCNC(=N)N)C(=O)N[C@@H](CCCCNC(=N)N)C(=O)NCCCCCCCCCCCC(N)=O [AVR-333, 5FPhAC-Ada-Tyr-DArg-Asp-Ala-Ile-Cpa-Thr-Asn-Har-Tyr(Me)-Arg-Lys-Val-Leu-Abu-Gln-Leu-Ser-Ala-Arg-Lys-Leu-Leu-Gln-Asp-Ile-Nle-DArg-Har-Ada-NH2] ({Phenylacetyl(2,3,4,5,6-F5)-12Ado}-Y[dR]DAI[Phe(4-Cl)]TN[hArg]Y(Me)RKVL[Abu]QLSARKLLQDI[Nle][dR][hArg][12Ado]-NH2) | – | – | – | – | – | – | – | – | – | 1.4 | 454.00
